The kinase profiling compilation of Christmann-Franck et al. (2016)

Key:
Experiment in all cases: radiometric filter-binding kinase assay, Kinase HotSpot
Conditions in all cases: compound 0.5 µM; ATP 10 µM
ACVR1B (human) = ACVR1B (human) (UniProt P36896)
AKT2 (human) = AKT2 (human) (UniProt P31751)
AURKC (human) = AURKC (human) (UniProt Q9UQB9)
CDK2 CCNA2 (human) = CDK2 CCNA2 (human) (UniProt P24941+P20248)
CDK5 CDK5R1 p35 (human) = CDK5 CDK5R1 p35 (human) (UniProt Q00535+Q15078)
CDK6 CCND1 (human) = CDK6 CCND1 (human) (UniProt Q00534+P24385)
CDK7 CCNH MNAT1 (human) = CDK7 CCNH MNAT1 (human) (UniProt P50613+P51948+P51946)
CLK1 (human) = CLK1 (human) (UniProt P49759)
CSF1R (human) = CSF1R (human) (UniProt P07333)
CSNK1G1 (human) = CSNK1G1 (human) (UniProt Q9HCP0)
DAPK3 (human) = DAPK3 (human) (UniProt O43293)
DMPK (human) = DMPK (human) (UniProt Q09013)
EPHA4 (human) = EPHA4 (human) (UniProt P54764)
ERBB4 (human) = ERBB4 (human) (UniProt Q15303)
FER (human) = FER (human) (UniProt P16591)
FGFR1 (human) = FGFR1 (human) (UniProt P11362)
FLT1 (human) = FLT1 (human) (UniProt P17948)
GRK5 (human) = GRK5 (human) (UniProt P34947)
KIT (human) = KIT (human) (UniProt P10721)
LCK (human) = LCK (human) (UniProt P06239)
MAP3K3 (human) = MAP3K3 (human) (UniProt Q99759)
MAP3K8 (human) = MAP3K8 (human) (UniProt P41279)
MAPK13 (human) = MAPK13 (human) (UniProt O15264)
MAPK3 (human) = MAPK3 (human) (UniProt P27361)
MINK1 (human) = MINK1 (human) (UniProt Q8N4C8)
MUSK (human) = MUSK (human) (UniProt O15146)
NEK3 (human) = NEK3 (human) (UniProt P51956)
PAK6 (human) = PAK6 (human) (UniProt Q9NQU5)
PDGFRB (human) = PDGFRB (human) (UniProt P09619)
PHKG2 (human) = PHKG2 (human) (UniProt P15735)
PIM2 (human) = PIM2 (human) (UniProt Q9P1W9)
PLK2 (human) = PLK2 (human) (UniProt Q9NYY3)
PRKCD (human) = PRKCD (human) (UniProt Q05655)
ROCK2 (human) = ROCK2 (human) (UniProt O75116)
ROS1 (human) = ROS1 (human) (UniProt P08922)
STK25 (human) = STK25 (human) (UniProt O00506)
TEC (human) = TEC (human) (UniProt P42680)
TEK (human) = TEK (human) (UniProt Q02763)
TNK2 (human) = TNK2 (human) (UniProt Q07912)
[1] = target: TYK2 JH1 catalytic (human) (UniProt P29597)
TYRO3 (human) = TYRO3 (human) (UniProt Q06418)
ZAP70 (human) = ZAP70 (human) (UniProt P43403)

MAPK3 (human), sequence (P27361 whole entry, looked up): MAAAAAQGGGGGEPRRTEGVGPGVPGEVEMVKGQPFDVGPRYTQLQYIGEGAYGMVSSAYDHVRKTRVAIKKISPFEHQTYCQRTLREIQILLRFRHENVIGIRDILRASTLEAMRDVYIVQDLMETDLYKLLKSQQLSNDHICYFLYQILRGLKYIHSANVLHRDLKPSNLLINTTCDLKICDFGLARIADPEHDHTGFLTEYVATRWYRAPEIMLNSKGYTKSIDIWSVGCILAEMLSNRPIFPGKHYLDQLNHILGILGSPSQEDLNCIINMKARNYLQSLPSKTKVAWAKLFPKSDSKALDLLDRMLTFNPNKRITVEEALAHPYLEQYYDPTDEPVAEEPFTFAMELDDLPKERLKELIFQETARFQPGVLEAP
PDGFRB (human), sequence (P09619 whole entry, looked up): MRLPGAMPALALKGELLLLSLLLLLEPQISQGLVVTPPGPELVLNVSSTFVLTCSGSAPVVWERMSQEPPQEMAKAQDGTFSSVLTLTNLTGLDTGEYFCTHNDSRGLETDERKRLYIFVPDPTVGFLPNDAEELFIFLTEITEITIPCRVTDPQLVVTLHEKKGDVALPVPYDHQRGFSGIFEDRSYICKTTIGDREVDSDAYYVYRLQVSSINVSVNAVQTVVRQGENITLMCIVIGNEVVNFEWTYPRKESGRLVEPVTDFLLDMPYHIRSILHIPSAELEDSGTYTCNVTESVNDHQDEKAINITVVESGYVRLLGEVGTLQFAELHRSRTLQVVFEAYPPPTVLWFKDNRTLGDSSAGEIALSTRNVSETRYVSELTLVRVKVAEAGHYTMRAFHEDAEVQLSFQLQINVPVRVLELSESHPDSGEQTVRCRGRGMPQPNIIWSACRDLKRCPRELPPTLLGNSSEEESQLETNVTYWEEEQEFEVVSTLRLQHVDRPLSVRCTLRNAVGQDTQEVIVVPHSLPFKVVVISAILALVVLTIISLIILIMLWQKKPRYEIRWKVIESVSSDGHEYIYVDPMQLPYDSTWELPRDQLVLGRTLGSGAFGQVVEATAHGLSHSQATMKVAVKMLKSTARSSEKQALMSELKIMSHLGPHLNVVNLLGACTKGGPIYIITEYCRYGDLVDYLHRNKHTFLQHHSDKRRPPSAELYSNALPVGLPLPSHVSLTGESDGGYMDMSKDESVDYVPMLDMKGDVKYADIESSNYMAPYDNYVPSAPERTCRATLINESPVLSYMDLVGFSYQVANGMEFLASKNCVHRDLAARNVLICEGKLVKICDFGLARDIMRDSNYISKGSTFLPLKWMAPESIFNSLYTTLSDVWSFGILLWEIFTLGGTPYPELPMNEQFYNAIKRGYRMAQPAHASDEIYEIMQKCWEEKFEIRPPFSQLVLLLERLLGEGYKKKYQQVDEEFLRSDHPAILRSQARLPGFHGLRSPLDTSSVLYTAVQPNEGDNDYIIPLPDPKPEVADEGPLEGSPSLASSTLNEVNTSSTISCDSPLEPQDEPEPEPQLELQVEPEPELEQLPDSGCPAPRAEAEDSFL
CDK7 CCNH MNAT1 (human), sequence (P50613 whole entry, looked up): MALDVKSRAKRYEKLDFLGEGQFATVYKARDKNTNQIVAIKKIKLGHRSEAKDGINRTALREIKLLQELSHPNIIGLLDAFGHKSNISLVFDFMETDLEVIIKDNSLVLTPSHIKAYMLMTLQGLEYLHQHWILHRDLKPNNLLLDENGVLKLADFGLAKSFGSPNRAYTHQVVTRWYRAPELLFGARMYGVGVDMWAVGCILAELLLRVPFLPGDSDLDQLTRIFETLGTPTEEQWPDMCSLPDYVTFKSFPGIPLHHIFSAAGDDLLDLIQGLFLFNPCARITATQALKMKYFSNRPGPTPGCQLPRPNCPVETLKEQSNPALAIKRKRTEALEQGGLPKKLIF
CDK7 CCNH MNAT1 (human), sequence (P51946 whole entry, looked up): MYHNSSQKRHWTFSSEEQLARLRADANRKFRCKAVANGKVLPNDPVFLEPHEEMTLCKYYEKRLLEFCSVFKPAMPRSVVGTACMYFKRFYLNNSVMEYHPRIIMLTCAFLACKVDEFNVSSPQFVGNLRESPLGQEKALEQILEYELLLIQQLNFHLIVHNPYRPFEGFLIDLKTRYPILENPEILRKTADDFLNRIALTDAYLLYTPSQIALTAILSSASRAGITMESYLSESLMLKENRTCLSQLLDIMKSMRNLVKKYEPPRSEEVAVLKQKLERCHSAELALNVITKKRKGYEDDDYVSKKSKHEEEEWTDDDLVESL
CDK7 CCNH MNAT1 (human), sequence (P51948 whole entry, looked up): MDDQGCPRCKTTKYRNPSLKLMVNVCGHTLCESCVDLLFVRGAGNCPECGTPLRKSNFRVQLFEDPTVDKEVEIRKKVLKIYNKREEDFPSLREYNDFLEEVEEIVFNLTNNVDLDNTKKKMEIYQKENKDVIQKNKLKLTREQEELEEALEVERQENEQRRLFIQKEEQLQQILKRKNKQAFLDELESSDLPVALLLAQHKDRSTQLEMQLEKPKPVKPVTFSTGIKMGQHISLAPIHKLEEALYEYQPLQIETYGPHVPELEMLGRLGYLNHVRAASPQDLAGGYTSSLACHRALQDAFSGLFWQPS
CDK2 CCNA2 (human), sequence (P20248 whole entry, looked up, other chains not shown): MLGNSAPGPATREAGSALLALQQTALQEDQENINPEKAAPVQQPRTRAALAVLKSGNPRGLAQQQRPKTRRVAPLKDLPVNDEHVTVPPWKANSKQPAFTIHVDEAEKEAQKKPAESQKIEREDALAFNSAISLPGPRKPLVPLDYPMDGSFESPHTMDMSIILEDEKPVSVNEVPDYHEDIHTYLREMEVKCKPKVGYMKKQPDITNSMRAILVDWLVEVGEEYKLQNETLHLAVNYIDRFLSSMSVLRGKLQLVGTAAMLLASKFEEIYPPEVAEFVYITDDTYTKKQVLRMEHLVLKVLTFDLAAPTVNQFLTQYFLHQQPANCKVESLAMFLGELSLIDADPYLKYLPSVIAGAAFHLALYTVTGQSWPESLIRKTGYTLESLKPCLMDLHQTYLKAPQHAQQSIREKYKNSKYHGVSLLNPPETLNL
AKT2 (human), sequence (P31751 whole entry, looked up): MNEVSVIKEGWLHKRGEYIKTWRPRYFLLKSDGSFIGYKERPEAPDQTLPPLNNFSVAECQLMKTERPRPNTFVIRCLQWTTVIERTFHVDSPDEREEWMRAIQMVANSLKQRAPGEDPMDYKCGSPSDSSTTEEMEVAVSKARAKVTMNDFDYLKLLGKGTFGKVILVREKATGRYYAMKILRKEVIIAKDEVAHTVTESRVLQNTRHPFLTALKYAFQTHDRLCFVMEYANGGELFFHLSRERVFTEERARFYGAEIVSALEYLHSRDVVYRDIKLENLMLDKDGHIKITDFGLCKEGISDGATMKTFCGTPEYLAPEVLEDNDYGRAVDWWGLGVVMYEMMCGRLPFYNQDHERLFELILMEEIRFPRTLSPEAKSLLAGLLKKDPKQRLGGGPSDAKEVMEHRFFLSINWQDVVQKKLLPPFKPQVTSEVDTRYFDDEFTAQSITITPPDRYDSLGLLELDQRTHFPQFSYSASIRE
PRKCD (human), sequence (Q05655 whole entry, looked up): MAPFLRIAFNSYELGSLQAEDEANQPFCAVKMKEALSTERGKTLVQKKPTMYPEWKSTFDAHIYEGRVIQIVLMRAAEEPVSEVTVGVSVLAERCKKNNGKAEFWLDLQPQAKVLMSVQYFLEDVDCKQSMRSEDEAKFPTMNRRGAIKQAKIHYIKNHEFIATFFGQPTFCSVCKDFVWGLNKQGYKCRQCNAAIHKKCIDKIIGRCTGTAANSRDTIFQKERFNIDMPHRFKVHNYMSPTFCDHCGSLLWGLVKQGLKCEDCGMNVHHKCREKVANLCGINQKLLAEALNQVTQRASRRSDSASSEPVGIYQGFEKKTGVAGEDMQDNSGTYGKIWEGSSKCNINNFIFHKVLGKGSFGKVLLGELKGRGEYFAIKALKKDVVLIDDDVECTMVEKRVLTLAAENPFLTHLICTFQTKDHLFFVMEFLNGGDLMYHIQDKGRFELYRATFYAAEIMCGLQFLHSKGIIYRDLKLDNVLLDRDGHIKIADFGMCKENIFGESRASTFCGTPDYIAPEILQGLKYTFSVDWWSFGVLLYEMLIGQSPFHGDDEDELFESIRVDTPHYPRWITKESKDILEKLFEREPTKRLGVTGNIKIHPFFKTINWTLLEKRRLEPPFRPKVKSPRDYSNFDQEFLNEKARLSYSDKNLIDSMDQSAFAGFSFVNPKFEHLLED
MAPK13 (human), sequence (O15264 whole entry, looked up): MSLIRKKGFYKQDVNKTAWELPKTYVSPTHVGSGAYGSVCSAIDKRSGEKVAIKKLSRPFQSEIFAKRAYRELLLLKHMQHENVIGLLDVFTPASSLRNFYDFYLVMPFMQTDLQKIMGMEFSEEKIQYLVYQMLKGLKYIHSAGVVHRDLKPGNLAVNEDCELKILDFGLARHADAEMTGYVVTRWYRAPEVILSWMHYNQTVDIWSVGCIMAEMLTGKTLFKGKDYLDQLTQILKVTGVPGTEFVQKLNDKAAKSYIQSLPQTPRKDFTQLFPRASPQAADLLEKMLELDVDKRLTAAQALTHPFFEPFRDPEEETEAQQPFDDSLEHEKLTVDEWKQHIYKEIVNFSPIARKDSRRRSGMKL
CLK1 (human), sequence (P49759 whole entry, looked up): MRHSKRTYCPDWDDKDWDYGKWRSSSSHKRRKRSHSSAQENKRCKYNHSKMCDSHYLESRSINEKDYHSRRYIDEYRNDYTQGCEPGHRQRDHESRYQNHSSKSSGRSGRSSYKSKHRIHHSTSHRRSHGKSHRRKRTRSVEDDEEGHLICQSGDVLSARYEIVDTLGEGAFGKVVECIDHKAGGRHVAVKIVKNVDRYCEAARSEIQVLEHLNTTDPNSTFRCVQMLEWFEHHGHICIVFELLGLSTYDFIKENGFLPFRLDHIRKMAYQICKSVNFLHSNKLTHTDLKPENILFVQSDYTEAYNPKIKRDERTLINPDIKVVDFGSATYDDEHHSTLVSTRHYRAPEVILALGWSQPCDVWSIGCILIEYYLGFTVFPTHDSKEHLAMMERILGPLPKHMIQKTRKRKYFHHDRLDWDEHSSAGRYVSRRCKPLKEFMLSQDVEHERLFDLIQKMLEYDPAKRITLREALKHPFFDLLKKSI

Question: Which residual activity (ACVR1B (human)) does the source give for `O=C(O)/C=C/c1cc(Br)c(Br)c(Br)c1Br` here?
Answer: Its residual activity is 103%.

Question: And the residual activity (AKT2 (human))?
Answer: The residual activity was 97.5%.

Question: What about the residual activity (AURKC (human)) of the same compound?
Answer: Its residual activity is 90.3%.

Question: And the residual activity (CDK2 CCNA2 (human))?
Answer: Its residual activity is 85.6%.

Question: And the residual activity (CDK5 CDK5R1 p35 (human))?
Answer: Its residual activity is 92.4%.

Question: And the residual activity (CDK6 CCND1 (human))?
Answer: Its residual activity is 102%.

Question: What about the residual activity (CDK7 CCNH MNAT1 (human)) of the same compound?
Answer: Its residual activity is 88.6%.

Question: And the residual activity (CLK1 (human))?
Answer: Its residual activity is 98.5%.

Question: And the residual activity (CSF1R (human))?
Answer: Its residual activity is 99%.

Question: What about the residual activity (CSNK1G1 (human)) of the same compound?
Answer: The residual activity was 97.2%.

Question: What about the residual activity (DAPK3 (human)) of the same compound?
Answer: Its residual activity is 90.2%.

Question: And the residual activity (DMPK (human))?
Answer: The residual activity was 103%.

Question: And the residual activity (EPHA4 (human))?
Answer: Its residual activity is 88.8%.

Question: And the residual activity (ERBB4 (human))?
Answer: The residual activity was 104%.

Question: What about the residual activity (FER (human)) of the same compound?
Answer: The residual activity was 96.6%.

Question: And the residual activity (FGFR1 (human))?
Answer: The residual activity was 95.2%.

Question: And the residual activity (FLT1 (human))?
Answer: Its residual activity is 87.5%.

Question: What about the residual activity (GRK5 (human)) of the same compound?
Answer: The residual activity was 104%.

Question: And the residual activity (KIT (human))?
Answer: The residual activity was 89.2%.

Question: What about the residual activity (LCK (human)) of the same compound?
Answer: The residual activity was 99.3%.

Question: And the residual activity (MAP3K3 (human))?
Answer: The residual activity was 105%.

Question: And the residual activity (MAP3K8 (human))?
Answer: Its residual activity is 83%.

Question: And the residual activity (MAPK13 (human))?
Answer: The residual activity was 98.5%.

Question: What about the residual activity (MAPK3 (human)) of the same compound?
Answer: Its residual activity is 110%.

Question: What about the residual activity (MINK1 (human)) of the same compound?
Answer: Its residual activity is 96%.

Question: And the residual activity (MUSK (human))?
Answer: Its residual activity is 53.6%.

Question: What about the residual activity (NEK3 (human)) of the same compound?
Answer: The residual activity was 83.5%.

Question: And the residual activity (PAK6 (human))?
Answer: Its residual activity is 110%.

Question: And the residual activity (PDGFRB (human))?
Answer: Its residual activity is 96%.

Question: What about the residual activity (PHKG2 (human)) of the same compound?
Answer: The residual activity was 98.9%.

Question: What about the residual activity (PIM2 (human)) of the same compound?
Answer: The residual activity was 52.8%.

Question: What about the residual activity (PLK2 (human)) of the same compound?
Answer: The residual activity was 51.5%.

Question: What about the residual activity (PRKCD (human)) of the same compound?
Answer: Its residual activity is 93.9%.

Question: And the residual activity (ROCK2 (human))?
Answer: Its residual activity is 94.2%.

Question: And the residual activity (ROS1 (human))?
Answer: The residual activity was 94%.

Question: What about the residual activity (STK25 (human)) of the same compound?
Answer: Its residual activity is 87.2%.

Question: And the residual activity (TEC (human))?
Answer: Its residual activity is 107%.

Question: What about the residual activity (TEK (human)) of the same compound?
Answer: The residual activity was 94.4%.

Question: And the residual activity (TNK2 (human))?
Answer: Its residual activity is 110%.

Question: And the residual activity [1]?
Answer: The residual activity was 110%.

Question: And the residual activity (TYRO3 (human))?
Answer: The residual activity was 93.3%.

Question: And the residual activity (ZAP70 (human))?
Answer: The residual activity was 98.5%.

Question: `O=C1Nc2ccccc2/C1=C1/Nc2ccccc2/C1=N\OCCC(O)CO` (centres undefined) was tested. Which residual activity (ACVR1B (human)) did it give?
Answer: The residual activity was 110%.

Question: What about the residual activity (AKT2 (human)) of the same compound?
Answer: The residual activity was 90.1%.

Question: What about the residual activity (AURKC (human)) of the same compound?
Answer: Its residual activity is 43.2%.

Question: And the residual activity (CDK2 CCNA2 (human))?
Answer: The residual activity was 15.5%.

Question: And the residual activity (CDK5 CDK5R1 p35 (human))?
Answer: Its residual activity is 14.3%.

Question: What about the residual activity (CDK6 CCND1 (human)) of the same compound?
Answer: The residual activity was 27.7%.

Question: What about the residual activity (CDK7 CCNH MNAT1 (human)) of the same compound?
Answer: Its residual activity is 77.9%.

Question: What about the residual activity (CLK1 (human)) of the same compound?
Answer: The residual activity was 36.6%.

Question: And the residual activity (CSF1R (human))?
Answer: Its residual activity is 21.1%.

Question: And the residual activity (CSNK1G1 (human))?
Answer: The residual activity was 89.2%.

Question: And the residual activity (DAPK3 (human))?
Answer: The residual activity was 66.6%.

Question: What about the residual activity (DMPK (human)) of the same compound?
Answer: Its residual activity is 99.5%.

Question: What about the residual activity (EPHA4 (human)) of the same compound?
Answer: The residual activity was 77.9%.

Question: And the residual activity (ERBB4 (human))?
Answer: Its residual activity is 97.5%.

Question: And the residual activity (FER (human))?
Answer: Its residual activity is 28.8%.

Question: And the residual activity (FGFR1 (human))?
Answer: The residual activity was 27.9%.

Question: And the residual activity (FLT1 (human))?
Answer: The residual activity was 51%.

Question: What about the residual activity (GRK5 (human)) of the same compound?
Answer: The residual activity was 84.6%.

Question: What about the residual activity (KIT (human)) of the same compound?
Answer: The residual activity was 44.8%.

Question: What about the residual activity (LCK (human)) of the same compound?
Answer: The residual activity was 29.7%.

Question: What about the residual activity (MAP3K3 (human)) of the same compound?
Answer: The residual activity was 87.8%.

Question: And the residual activity (MAP3K8 (human))?
Answer: Its residual activity is 123%.

Question: What about the residual activity (MAPK13 (human)) of the same compound?
Answer: The residual activity was 94.8%.

Question: And the residual activity (MAPK3 (human))?
Answer: Its residual activity is 98.7%.

Question: What about the residual activity (MINK1 (human)) of the same compound?
Answer: The residual activity was 21%.

Question: And the residual activity (MUSK (human))?
Answer: Its residual activity is 58%.

Question: What about the residual activity (NEK3 (human)) of the same compound?
Answer: The residual activity was 102%.

Question: And the residual activity (PAK6 (human))?
Answer: The residual activity was 93.5%.

Question: What about the residual activity (PDGFRB (human)) of the same compound?
Answer: The residual activity was 42.8%.

Question: And the residual activity (PHKG2 (human))?
Answer: Its residual activity is 34.9%.

Question: What about the residual activity (PIM2 (human)) of the same compound?
Answer: Its residual activity is 99.5%.

Question: What about the residual activity (PLK2 (human)) of the same compound?
Answer: Its residual activity is 105%.

Question: What about the residual activity (PRKCD (human)) of the same compound?
Answer: The residual activity was 80.6%.

Question: And the residual activity (ROCK2 (human))?
Answer: Its residual activity is 91%.

Question: What about the residual activity (ROS1 (human)) of the same compound?
Answer: The residual activity was 27%.

Question: What about the residual activity (STK25 (human)) of the same compound?
Answer: The residual activity was 74%.

Question: What about the residual activity (TEC (human)) of the same compound?
Answer: The residual activity was 101%.

Question: What about the residual activity (TEK (human)) of the same compound?
Answer: Its residual activity is 101%.

Question: And the residual activity (TNK2 (human))?
Answer: The residual activity was 4.93%.

Question: What about the residual activity [1] of the same compound?
Answer: Its residual activity is 9.42%.

Question: What about the residual activity (TYRO3 (human)) of the same compound?
Answer: The residual activity was 71.5%.

Question: What about the residual activity (ZAP70 (human)) of the same compound?
Answer: The residual activity was 97.8%.
